# Measurements published in ChEMBL document CHEMBL5678795 (Eur J Pharmacol, 1999).
# Active and inactive are the calls of the source. No cut-off for these calls is given here.
# Legend:
# [1] = target: Prostacyclin receptor (Homo sapiens) (UniProt P43119); assay: Displacement of [3H]iloprost from human recombinant Prostaglandin I2 receptor at 10 uM incubated for 60 mins by radiometric based scintillation counter assay relative to control
# [2] = target: 5-hydroxytryptamine receptor 1B (Homo sapiens) (UniProt P28222); assay: Displacement of [3H]GR125743 from human recombinant 5-Hydroxytryptamine 1B at 10 uM incubated for 60 mins by radiometric based scintillation counter assay relative to control
# Sequence of 5-hydroxytryptamine receptor 1B (Homo sapiens) (P28222 whole entry): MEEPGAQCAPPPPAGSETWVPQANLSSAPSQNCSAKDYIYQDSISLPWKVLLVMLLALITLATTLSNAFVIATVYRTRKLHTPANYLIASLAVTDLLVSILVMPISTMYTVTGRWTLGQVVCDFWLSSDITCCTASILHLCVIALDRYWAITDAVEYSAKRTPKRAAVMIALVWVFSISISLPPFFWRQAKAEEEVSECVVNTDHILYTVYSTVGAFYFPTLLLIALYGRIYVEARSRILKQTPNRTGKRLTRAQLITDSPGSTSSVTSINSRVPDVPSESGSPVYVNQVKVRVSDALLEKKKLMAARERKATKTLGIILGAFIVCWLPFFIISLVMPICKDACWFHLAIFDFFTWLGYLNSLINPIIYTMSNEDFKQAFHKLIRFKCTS
# [3] = target: Neuropeptide Y receptor type 1 (Homo sapiens) (UniProt P25929); assay: Displacement of [125I]peptide YY from human recombinant Y1 receptor at 10 uM incubated for 120 mins by radiometric based scintillation counter assay relative to control
# Sequence of Neuropeptide Y receptor type 1 (Homo sapiens) (P25929 whole entry): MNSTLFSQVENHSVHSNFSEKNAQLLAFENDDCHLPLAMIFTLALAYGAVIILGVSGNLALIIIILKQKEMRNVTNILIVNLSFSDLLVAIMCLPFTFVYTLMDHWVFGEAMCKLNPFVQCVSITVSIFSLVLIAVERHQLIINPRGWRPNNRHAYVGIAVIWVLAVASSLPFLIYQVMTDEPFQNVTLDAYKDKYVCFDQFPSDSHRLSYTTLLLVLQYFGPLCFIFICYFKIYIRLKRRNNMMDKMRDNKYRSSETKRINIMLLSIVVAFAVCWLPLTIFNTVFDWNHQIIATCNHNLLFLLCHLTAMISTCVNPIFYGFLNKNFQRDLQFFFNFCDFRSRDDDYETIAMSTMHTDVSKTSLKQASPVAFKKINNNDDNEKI
# [4] = organism: Homo sapiens; assay: Inhibition of human galanin receptor at 10 uM by radioligand binding assay relative to control
# [5] = Oral bioavailability in cynomolgus monkey at 5 mg/kg administered for 12 hrs by HPLC analysis; format: ADME, organism-based, Macaca fascicularis; conditions: in vivo
# [6] = target: T1, Endothelin-1 receptor (Rattus norvegicus) (UniProt P26684); assay: In vivo antagonist activity to ETA receptor in endothelin-1 induced Sprague-Dawley rat assessed as reduction of vasopressor response at 30 mg/kg, po administered for 4 to 8 hrs; format: functional, organism-based; conditions: time 4-8 hrs
# T1 sequence (whole entry): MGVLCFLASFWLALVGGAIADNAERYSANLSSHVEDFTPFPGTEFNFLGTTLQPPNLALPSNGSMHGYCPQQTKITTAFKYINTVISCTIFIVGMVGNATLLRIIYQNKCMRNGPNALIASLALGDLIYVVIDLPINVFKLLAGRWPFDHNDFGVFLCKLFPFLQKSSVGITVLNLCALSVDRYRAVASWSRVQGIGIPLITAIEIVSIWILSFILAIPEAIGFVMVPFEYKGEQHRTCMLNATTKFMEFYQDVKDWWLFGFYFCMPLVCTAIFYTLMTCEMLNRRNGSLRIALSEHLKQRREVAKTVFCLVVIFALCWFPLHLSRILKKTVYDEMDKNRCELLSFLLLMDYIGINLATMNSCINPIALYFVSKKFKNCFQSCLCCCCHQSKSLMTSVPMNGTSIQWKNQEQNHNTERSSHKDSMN
# [7] = Half life in cynomolgus monkey at 5 mg/kg, po administered for 12 hrs by HPLC analysis; format: ADME, organism-based, Macaca fascicularis; conditions: in vivo
# [8] = target: T2, Endothelin-1 receptor (Homo sapiens) (UniProt P25101); assay: Displacement of [125I]endhothelin-1 from human ETA receptor stably expressed in CHO cells Membrane assessed as maximum binding at 25 degC at 0.25 to 1.0 nM incubated for 4 hrs by saturation binding assay; format: cell membranes; conditions: dose 0.25-1 nM
# T2 sequence (whole entry): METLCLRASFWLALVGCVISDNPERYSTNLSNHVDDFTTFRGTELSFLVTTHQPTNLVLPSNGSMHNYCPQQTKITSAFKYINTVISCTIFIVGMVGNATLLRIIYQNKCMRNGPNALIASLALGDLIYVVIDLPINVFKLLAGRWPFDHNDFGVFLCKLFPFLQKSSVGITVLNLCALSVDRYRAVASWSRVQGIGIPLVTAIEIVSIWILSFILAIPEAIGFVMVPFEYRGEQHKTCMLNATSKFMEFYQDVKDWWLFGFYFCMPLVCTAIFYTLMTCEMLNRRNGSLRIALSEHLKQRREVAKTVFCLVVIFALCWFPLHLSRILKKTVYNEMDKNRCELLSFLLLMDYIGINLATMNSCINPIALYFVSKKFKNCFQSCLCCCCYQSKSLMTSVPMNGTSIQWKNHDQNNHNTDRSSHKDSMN
# [9] = target: B2 bradykinin receptor (Homo sapiens) (UniProt P30411); assay: Displacement of [3H]bradykinin from human recombinant Bradykinin B2 receptor at 10 uM incubated for 60 mins by radiometric based scintillation counter assay relative to control
# Sequence of B2 bradykinin receptor (Homo sapiens) (P30411 whole entry): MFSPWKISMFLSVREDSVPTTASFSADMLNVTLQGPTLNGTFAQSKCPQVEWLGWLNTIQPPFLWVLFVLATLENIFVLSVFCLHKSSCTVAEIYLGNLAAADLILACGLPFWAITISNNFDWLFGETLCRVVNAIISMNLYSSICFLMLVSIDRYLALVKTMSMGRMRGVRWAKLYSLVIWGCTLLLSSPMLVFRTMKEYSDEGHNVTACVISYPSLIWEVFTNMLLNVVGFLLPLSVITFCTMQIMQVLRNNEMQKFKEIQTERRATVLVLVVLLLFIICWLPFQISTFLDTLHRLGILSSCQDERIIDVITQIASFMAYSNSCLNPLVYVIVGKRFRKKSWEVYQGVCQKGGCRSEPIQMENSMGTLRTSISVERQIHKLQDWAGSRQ
# [10] = Cmax in Sprague-Dawley rat at 10 mg/kg, po administered for 12 hrs by HPLC analysis; format: ADME, organism-based; conditions: in vivo
# [11] = target: Endothelin receptor type B (Sus scrofa, UniProt P35463); assay: Displacement of [125I]endhothelin-3 from ETB receptor in porcine Cerebellum Membrane at 25 degC incubated for 3 hrs by radioligand competition binding assay; format: cell membranes
# Sequence of Endothelin receptor type B (P35463 whole entry): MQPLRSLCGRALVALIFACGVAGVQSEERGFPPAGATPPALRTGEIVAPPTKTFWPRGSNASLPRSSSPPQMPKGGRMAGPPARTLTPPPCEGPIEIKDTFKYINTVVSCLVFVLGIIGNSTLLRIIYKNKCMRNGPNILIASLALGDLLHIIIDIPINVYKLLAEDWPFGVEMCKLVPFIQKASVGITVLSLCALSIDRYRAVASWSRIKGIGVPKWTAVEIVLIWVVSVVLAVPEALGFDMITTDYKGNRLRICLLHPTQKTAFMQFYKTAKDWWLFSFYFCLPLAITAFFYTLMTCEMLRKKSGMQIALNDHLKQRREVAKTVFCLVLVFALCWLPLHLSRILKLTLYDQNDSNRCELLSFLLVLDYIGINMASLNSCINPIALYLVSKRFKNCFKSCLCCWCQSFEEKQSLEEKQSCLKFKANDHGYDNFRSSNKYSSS
# [12] = Half life in Sprague-Dawley rat at 10 mg/kg, po administered for 12 hrs by HPLC analysis; format: ADME, organism-based; conditions: in vivo
# [13] = target: Neuropeptide Y receptor type 2 (Homo sapiens) (UniProt P49146); assay: Displacement of [125I]peptide YY from human recombinant Y2 receptor at 10 uM incubated for 60 mins by radiometric based scintillation counter assay relative to control
# Sequence of Neuropeptide Y receptor type 2 (Homo sapiens) (P49146 whole entry): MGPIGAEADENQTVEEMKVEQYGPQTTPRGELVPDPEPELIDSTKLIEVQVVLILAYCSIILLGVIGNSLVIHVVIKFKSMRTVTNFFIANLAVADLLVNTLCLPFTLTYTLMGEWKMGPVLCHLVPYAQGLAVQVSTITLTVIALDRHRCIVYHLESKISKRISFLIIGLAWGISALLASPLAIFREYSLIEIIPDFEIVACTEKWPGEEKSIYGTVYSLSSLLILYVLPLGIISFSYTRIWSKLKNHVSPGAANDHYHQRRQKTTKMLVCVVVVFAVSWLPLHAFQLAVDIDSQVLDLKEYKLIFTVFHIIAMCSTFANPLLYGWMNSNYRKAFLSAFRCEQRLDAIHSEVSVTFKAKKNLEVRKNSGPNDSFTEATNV
# [14] = target: Muscarinic acetylcholine receptor M5 (Homo sapiens) (UniProt P08912); assay: Displacement of [3H]4-DAMP from human recombinant muscarinic M5 receptor at 10 uM incubated for 60 mins by radiometric based scintillation counter assay relative to control
# Sequence of Muscarinic acetylcholine receptor M5 (Homo sapiens) (P08912 whole entry): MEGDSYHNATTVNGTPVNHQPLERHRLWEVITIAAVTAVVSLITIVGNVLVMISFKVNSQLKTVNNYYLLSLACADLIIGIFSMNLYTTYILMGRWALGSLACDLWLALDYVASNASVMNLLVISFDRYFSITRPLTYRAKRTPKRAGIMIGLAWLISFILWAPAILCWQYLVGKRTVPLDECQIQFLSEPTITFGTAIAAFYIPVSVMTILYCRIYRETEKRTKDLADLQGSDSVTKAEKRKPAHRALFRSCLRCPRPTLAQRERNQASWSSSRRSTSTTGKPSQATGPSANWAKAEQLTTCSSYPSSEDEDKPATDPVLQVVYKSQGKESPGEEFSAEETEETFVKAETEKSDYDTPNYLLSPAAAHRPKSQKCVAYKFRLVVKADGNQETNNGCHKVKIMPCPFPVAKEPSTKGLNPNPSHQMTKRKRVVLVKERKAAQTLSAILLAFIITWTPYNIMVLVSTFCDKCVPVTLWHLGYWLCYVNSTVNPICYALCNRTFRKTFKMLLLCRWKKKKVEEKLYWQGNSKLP
# [15] = target: Endothelin receptor type B (Oryctolagus cuniculus) (UniProt Q9N0W7); assay: Antagonist activity to ETB receptor in rabbit pulmonary artery assessed as induction of vessel ring contraction preincubated for 15 mins; format: functional, tissue-based
# Sequence of Endothelin receptor type B (Oryctolagus cuniculus) (Q9N0W7 whole entry): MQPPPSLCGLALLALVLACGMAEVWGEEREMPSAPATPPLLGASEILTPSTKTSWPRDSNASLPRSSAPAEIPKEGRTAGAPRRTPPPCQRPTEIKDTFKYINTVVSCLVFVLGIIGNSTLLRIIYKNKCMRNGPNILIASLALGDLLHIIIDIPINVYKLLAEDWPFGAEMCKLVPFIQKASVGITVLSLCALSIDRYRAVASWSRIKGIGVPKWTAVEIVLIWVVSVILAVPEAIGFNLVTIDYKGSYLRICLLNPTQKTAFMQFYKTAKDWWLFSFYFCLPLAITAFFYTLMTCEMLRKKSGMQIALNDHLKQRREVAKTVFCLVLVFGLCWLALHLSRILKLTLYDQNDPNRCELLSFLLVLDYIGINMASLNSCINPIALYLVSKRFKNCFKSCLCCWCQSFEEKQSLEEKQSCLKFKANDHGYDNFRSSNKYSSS
# [16] = target: T3, Endothelin-1 receptor (Rattus norvegicus, UniProt P26684); assay: Antagonist activity at ETA receptor in endothelin-1 stimulated rat MMQ cells assessed as inhibition of phosphatidylinositol hydrolysis in presence of myo-[3H] inositol by anion exchange chromatography; format: functional, cell-based
# T3 sequence (P26684 whole entry): T1 sequence (whole entry)
# [17] = target: Gastrin/cholecystokinin type B receptor (Homo sapiens) (UniProt P32239); assay: Displacement of [125I]CCK-8s from human recombinant cholecystokinin B receptor at 10 uM incubated for 60 mins by radiometric based scintillation counter assay relative to control
# [18] = system: Glutamate receptor ionotropic NMDA (PCP site); assay: Inhibition of PCP receptor (unknown origin) at 10 uM by radioligand binding assay relative to control; conditions: Homo sapiens
# [19] = organism: Rattus norvegicus; assay: Displacement of [3H]batrachotoxinin from rat brain Voltage-gated Na+ channel (site 2) at 10 uM incubated for 60 mins by radiometric based scintillation counter assay relative to control; format: tissue-based
# [20] = target: Adenosine receptor A3 (Homo sapiens) (UniProt P0DMS8); assay: Displacement of [125I]AB-MECA from human recombinant adenosine A3 receptor at 10 uM incubated for 120 mins by radiometric based scintillation counter assay relative to control
# Sequence of Adenosine receptor A3 (Homo sapiens) (P0DMS8 whole entry): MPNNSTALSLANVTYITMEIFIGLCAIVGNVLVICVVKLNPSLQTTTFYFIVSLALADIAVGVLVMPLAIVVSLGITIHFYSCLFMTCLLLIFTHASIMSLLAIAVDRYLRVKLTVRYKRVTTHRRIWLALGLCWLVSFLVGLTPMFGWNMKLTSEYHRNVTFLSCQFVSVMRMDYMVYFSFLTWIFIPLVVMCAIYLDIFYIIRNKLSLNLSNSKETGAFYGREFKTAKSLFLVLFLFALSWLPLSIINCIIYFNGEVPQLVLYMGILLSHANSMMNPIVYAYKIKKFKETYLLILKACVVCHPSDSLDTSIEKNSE
# [21] = target: Muscarinic acetylcholine receptor M1 (Homo sapiens) (UniProt P11229); assay: Displacement of [3H]pirenzepine from human recombinant muscarinic M1 receptor at 10 uM incubated for 60 mins by radiometric based scintillation counter assay relative to control
# Sequence of Muscarinic acetylcholine receptor M1 (Homo sapiens) (P11229 whole entry): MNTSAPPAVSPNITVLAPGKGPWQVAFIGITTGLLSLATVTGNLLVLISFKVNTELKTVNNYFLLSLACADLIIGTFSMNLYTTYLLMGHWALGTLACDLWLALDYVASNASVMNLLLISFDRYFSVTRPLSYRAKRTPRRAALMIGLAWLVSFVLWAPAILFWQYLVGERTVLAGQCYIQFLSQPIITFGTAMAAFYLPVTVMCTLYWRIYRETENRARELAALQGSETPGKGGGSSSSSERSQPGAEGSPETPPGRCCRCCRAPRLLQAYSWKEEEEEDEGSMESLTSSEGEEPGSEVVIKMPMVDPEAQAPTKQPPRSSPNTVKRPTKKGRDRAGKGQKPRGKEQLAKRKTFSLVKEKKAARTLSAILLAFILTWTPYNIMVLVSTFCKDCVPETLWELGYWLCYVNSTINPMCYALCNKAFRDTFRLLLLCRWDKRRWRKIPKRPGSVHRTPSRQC
# [22] = target: 5-hydroxytryptamine receptor 1A (Homo sapiens) (UniProt P08908); assay: Displacement of [3H]8-OH-DPAT from human recombinant 5-Hydroxytryptamine 1A at 10 uM incubated for 60 mins by radiometric based scintillation counter assay relative to control
# Sequence of 5-hydroxytryptamine receptor 1A (Homo sapiens) (P08908 whole entry): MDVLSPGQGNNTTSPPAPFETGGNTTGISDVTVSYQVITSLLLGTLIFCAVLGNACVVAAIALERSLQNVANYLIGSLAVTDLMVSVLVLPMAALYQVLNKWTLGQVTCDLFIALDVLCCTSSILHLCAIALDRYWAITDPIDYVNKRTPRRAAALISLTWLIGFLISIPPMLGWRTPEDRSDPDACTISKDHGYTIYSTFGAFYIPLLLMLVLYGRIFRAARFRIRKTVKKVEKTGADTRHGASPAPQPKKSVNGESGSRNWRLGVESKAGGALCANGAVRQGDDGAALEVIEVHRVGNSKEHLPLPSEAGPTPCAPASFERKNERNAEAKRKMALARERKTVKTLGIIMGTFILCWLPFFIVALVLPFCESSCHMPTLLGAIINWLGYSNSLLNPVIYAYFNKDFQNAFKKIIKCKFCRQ
# [23] = target: Kappa-type opioid receptor (Homo sapiens) (UniProt P41145); assay: Displacement of [3H]U-69593 from human kappa-Opioid receptor at 10 uM incubated for 60 mins by radiometric based scintillation counter assay relative to control
# Sequence of Kappa-type opioid receptor (Homo sapiens) (P41145 whole entry): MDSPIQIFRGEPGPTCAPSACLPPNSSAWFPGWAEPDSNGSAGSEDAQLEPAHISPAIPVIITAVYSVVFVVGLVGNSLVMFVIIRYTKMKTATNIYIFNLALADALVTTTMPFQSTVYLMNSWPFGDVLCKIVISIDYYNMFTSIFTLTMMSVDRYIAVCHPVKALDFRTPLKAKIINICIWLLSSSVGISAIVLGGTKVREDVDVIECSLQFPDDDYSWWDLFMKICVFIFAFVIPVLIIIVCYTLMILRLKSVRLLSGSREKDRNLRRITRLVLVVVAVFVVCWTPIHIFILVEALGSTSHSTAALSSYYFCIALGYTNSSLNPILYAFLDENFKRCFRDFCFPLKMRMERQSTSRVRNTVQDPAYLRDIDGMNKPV
# [24] = organism: Mus musculus; assay: Displacement of [125I]Tyr11-somatostatin-14 from mouse Somatostatin receptor at 10 uM incubated for 60 mins by radiometric based scintillation counter assay relative to control
# Sequence of Prostacyclin receptor (Homo sapiens) (P43119 whole entry): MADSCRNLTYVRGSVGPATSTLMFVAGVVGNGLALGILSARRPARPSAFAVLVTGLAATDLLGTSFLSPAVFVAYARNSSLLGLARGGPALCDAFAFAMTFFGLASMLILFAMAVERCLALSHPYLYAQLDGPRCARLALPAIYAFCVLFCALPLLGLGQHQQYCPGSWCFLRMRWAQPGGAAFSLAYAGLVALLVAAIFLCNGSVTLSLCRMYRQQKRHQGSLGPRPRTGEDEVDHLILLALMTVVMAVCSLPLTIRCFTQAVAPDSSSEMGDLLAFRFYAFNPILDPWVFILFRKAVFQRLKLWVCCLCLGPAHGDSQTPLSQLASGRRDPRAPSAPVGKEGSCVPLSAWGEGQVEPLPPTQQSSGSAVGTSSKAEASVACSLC
compound,measurement,setting,value
CCCCN(CCCC)C(=O)CN1[C@H](c2cc(OC)c3c(c2)OCO3)C[C@@H](C(=O)O)[C@@H]1CC(C)(C)CCC,inhibition,[1],15%
same,inhibition,[2],< 10%
same,inhibition,[3],< 10%
same,inhibition,[4],< 10%
same,bioavailability,[5],18.1%
same,Activity,[6],Active
same,half-life,[7],1 h
same,Bmax,[8],inactive
same,inhibition,[9],< 10%
same,Cmax,[10],1690 ng/mL
same,IC50,[11],16.7 µM
same,half-life,[12],2.5 h
same,inhibition,[13],< 10%
same,inhibition,[14],< 10%
same,Activity,[15],inactive
same,IC50,[16],0.00059 µM
same,inhibition,[17],< 10%
same,inhibition,[18],< 10%
same,inhibition,[19],< 10%
same,inhibition,[20],32%
same,inhibition,[21],< 10%
same,inhibition,[22],< 10%
same,inhibition,[23],28%
same,inhibition,[24],< 10%
